Test results as given in US20020061927A1, “Insulin receptor activators for the treatment of metabolic disorders induced by treatment with HIV protease inhibitors” (priority 2000, published 2002).

Experiments:
3T3 L1 adipocytes = assay: Reversal of HIV protease inhibitor block of glucose transport in cells (14C-2-deoxy-D-glucose uptake); assay type: cell-based; details: for effect of HIV protease inhibitor drug on glucose transport activity: 3T3 L1 adipocytes; for glucose transport: 3T3 L1 cells; for effect on glucose transport activity inhibited by HIV protease inhibitor drugs: 3T3 L1 adipocytes in presence of Ritonavir, Indinavir or Amprenavir
Method: Stimulation of the insulin receptor leads to the transport of glucose from the blood into cells, thus modulating blood glucose levels. 3T3 L1 fibroblasts (ATCC) were grown in Dulbecco's modified Eagle's medium (DMEM) with 10% fetal bovine serum (FBS). The cells were plated at a density of 3×10^4 cells/ml in 96 well plates (0.1 ml/well). Two days after confluence was reached, the cells were treated for 3 days with 0.5 mM isobutylmethylxanthine (IBMX), 1 μM dexamethasone, and 1.7 μM insulin. The cells were then transferred to DMEM with 10% FBS and supplemented with 1.7 μM insulin for 2 more days. The cells were maintained in DMEM with 10% FBS for an additional 4 days. Finally, the cells were serum starved overnight in 0.1% bovine serum albumin (BSA) in DMEM.
The following day, the cells were pretreated with Indinavir, Ritonavir, or Amprenavir (at the concentrations indicated in the Tables below) in a buffer containing 150 mM NaCl, 1.7 mM KCl, 0.9 mM CaCl2 1.47 mM K2HPO4 (pH 7.4) and 0.01% BSA for 6 minutes followed by treatment with a compound described in this patent (56 μM compound 1; 20 μM compound 2) with or without 100 nM insulin for 30 minutes. Following incubation, the cells were labeled with ^14C-labeled 2-deoxy-D-glucose (0.5 μCi/ml) and incubation was continued for additional 30 minutes at 37° C. The cells were then washed 3 times with ice-cold PBS/20 mM glucose and lysed in 100 μl of lysis buffer (50 mM Hepes pH 7.6, 1% Triton X-100) for 30 minutes at room temperature. Radioactivity in the lysate was quantified by scintillation counting.
Once ^14C-2-deoxy-D-glucose is transported into the cells, it is not released. Glucose transport is, therefore, proportional to the amount of radioactivity in the lysate.

male CD rats = assay: Reversal of protease inhibitor-mediated insulin resistance in normal rats (oral glucose challenge); assay type: in vivo, rat; details: indinavir sulfate plus compound 1, oral
Method: Seven to nine week-old male CD rats (Charles River Laboratories, Hollister, Calif.) were used to study the effects of protease inhibitor and compound 1. Animals were kept in a 12 h/12 h light/dark cycle and were fasted overnight.
Indinavir sulfate was prepared in water, and compound 1 was prepared in PBS. Seven animals (average weight 300 grams) were used in each treatment condition. The animals were treated with vehicle or indinavir sulfate or indinavir sulfate plus compound 1 by oral administration. After 30 min, the animals were challenged with oral glucose load (2 g/kg), and blood glucose measurements were taken at 0 min, 10 min, 20 min, 30 min, 60 min, 90 min and 120 min by tail bleeding. Glucose measurements were made with a Glucometer and Glucose strips (Bayer).
The blood glucose levels are reported as the percentage of the values before challenge (“zero time” values).
Blood samples obtained from 0 min and 30 min time points were analysed for plasma insulin levels by ELISA (ALPCO Diagnostics, Windham, N.H.).

[1] = 5 μM Amprenavir pretreatment, 56 μM compound 1 / 20 μM compound 2
[2] = 5 μM Indinavir pretreatment, 56 μM compound 1 / 20 μM compound 2
[3] = 10 μM Amprenavir pretreatment, 56 μM compound 1 / 20 μM compound 2
[4] = 10 μM Indinavir pretreatment, 56 μM compound 1 / 20 μM compound 2
[5] = 20 μM Indinavir pretreatment, 56 μM compound 1 / 20 μM compound 2

| Compound | effect of HIV protease inhibitor drug on glucose transport activity (3T3 L1 adipocytes) | glucose transport (3T3 L1 adipocytes; [1]) | glucose transport (3T3 L1 adipocytes; [2]) | glucose transport (3T3 L1 adipocytes; 5 μM Ritonavir pretreatment, 56 μM compound 1) | glucose transport (3T3 L1 adipocytes; [3]) | glucose transport (3T3 L1 adipocytes; [4]) | glucose transport (3T3 L1 adipocytes; 20 μM Amprenavir pretreatment, 56 μM compound 1) | glucose transport (3T3 L1 adipocytes; [5]) | effect on glucose transport activity inhibited by HIV protease inhibitor drugs (3T3 L1 adipocytes) | protease inhibitor-mediated insulin resistance (male CD rats) |
| --- | --- | --- | --- | --- | --- | --- | --- | --- | --- | --- |
| CC(C)CN(C[C@@H](O)[C@H](Cc1ccccc1)NC(=O)O[C@H]1CCOC1)S(=O)(=O)c1ccc(N)cc1 [Amprenavir, reference compound] | inhibited |  |  |  |  |  |  |  |  |  |
| O=C(Nc1ccc2c(O)cc(S(=O)(=O)Nc3ccc(Cl)c(S(=O)(=O)O)c3)cc2c1)Nc1ccc2c(O)cc(S(=O)(=O)Nc3ccc(Cl)c(S(=O)(=O)O)c3)cc2c1 [Compound 1] |  | 1.83 fold over fold over 50 nM insulin | 1.34 fold over fold over 50 nM insulin | 1.32 foldover fold over 50 nM insulin | 1.53 fold over fold over 50 nM insulin | 1.16 fold over fold over 50 nM insulin | 1.21 fold over fold over 50 nM insulin | 1.12 fold over fold over 50 nM insulin | increase the glucose transport activity | Reversal of Protease Inhibitor-mediated Insulin Resistance |
| O=C(Nc1ccc2c(O)c(/N=N/c3ccc(/N=N/c4ccc(S(=O)(=O)O)cc4)cc3S(=O)(=O)O)c(S(=O)(=O)O)cc2c1)Nc1ccc2c(O)cc(S(=O)(=O)O)c(N=Nc3ccc(/N=N/c4ccc(S(=O)(=O)O)cc4)cc3S(=O)(=O)O)c2c1 [Compound 2] |  | 1.25 foldover fold over 50 nM insulin | 1.38 fold over fold over 50 nM insulin |  | 1.07 foldover fold over 50 nM insulin | 1.25 fold over fold over 50 nM insulin |  | 1.02 fold over fold over 50 nM insulin | increase the glucose transport activity |  |
| CC(C)(C)NC(=O)[C@@H]1CN(Cc2cccnc2)CCN1C[C@@H](O)C[C@@H](Cc1ccccc1)C(=O)N[C@H]1c2ccccc2C[C@H]1O [Indinavir, reference compound] | inhibited |  |  |  |  |  |  |  |  |  |
| CC(C)c1nc(CN(C)C(=O)N[C@H](C(=O)N[C@@H](Cc2ccccc2)C[C@H](O)[C@H](Cc2ccccc2)NC(=O)OCc2cncs2)C(C)C)cs1 [Ritonavir, reference compound] | inhibited |  |  |  |  |  |  |  |  |  |
